Results reported in PMC10500001, “Dual hypoxia-responsive supramolecular complex for cancer target therapy” (Nature Communications, 2023).
“And” between values parts separate entries of the source, which are not always exact repeats. Equal entries are not always repeated.

What was measured:
PANC1 cells [1] = experiment: Cellular uptake mechanism with endocytosis inhibitors (flow cytometry); assay type: cell-based, human; details: uptake of the SAC5A complex with the inhibitor, 4 replicates
Protocol: To examine the cellular uptake mechanism of SAC5A complex, PANC1 cells (3 × 10^5 cells/well) were seeded into the six-well plates and incubated overnight. The cells were pretreated with different endocytosis inhibitors for 1 h: chlorpromazine (CHP, 20 μM, an inhibitor of clathrin-mediated endocytosis), Amiloride (AMI, 500 μM, an inhibitor of macropinocytosis), Genistein (GEN, 200 μM, an inhibitor of caveolae-mediated endocytosis), methyl-β-cyclodextrin (M-β-CD, 5 mM, an inhibitor of lipid rafts-mediated endocytosis), the cells were also pre-incubated under 4 °C for 1 h (energy-dependent endocytosis). […] After that, the cells were collected and washed three times with PBS, and then analyzed by flow cytometry. All experiments were carried out four times. […]
Chlorpromazine (CHP): inhibitor of clathrin-mediated endocytosis; amiloride (AMI): inhibitor of macropinocytosis; Genistein (GEN): inhibitor of caveolae-mediated endocytosis; Methyl-β-cyclodextrin (M-β-CD): lipid rafts-mediated endocytosis; 4 °C: energy-mediated endocytosis. Data are presented as […]

PANC1 cells [2] = experiment: CLSM fluorescence imaging in living cells under normoxic and hypoxic conditions; assay type: cell-based, human; details: 10 μM
Protocol: In this assay, SBE-β-CD was employed to generate CY5-DM@SBE-β-CD as a benchmark. […] The increased fluorescence manifested the hypoxia-selective release performance of the supramolecular complex.
PANC1 cells (1 × 10^5 cells/well) were seeded into the confocal imaging chambers. […] After a 6 h incubation under normoxic conditions, the culture medium was exchanged with fresh medium. Thereafter, the cells were incubated at 37 °C for 18 h under either normoxic or hypoxic conditions, respectively. Subsequently, the cells were fixed in 4% paraformaldehyde (PFA; Biosharp, Hefei, China) for 15 min, washed with PBS buffer three times and then imaged using CLSM. Cell nuclei were counterstained with DAPI (C0060, Solarbio, Beijing, China) for 5 min.

PANC1 tumor-bearing mice = experiment: In vivo fluorescence imaging; details: single mouse
Protocol: For animals and tumor model, male BALB/c nude mice at 5–6 weeks were purchased from Vital River Laboratory Animal Technology (Beijing, China). All animal experiments were performed according to the institutional animal care guidelines established by the Institutional Animal Care and Use Committee of Nankai University. To establish the PANC1 tumor-bearing mouse model, 1 × 10^6 PANC1 cells were injected subcutaneously into the right chest of BALB/c nude mice. After the tumor grows to a suitable size, the tumor was divided into small pieces and then subcutaneously incubated into the right chest of other mice. […] The ex vivo fluorescence imaging of major organs at 24 h post injection was imaged by IVIS. Fluorescent images were analyzed using Living Image 3.1 (Caliper Life Sciences).

[3] = set-up: method as in earlier work; details: ref 2 of the supplement; cited from earlier work
[4] = Competitive fluorescence titration of LCG@SC5A with NMP-BE; assay type: binding; details: HEPES pH 7.4
Protocol: The complexation of SAC5A with reporter dye (RhB) was measured by direct fluorescence titrations. A mixed solution containing known amounts of SAC5A and RhB was sequentially injected into 2.50 mL RhB solution in a quartz cuvette. The dye concentrations in mixed solution and cuvette are the same to keep dye concentration constant in the course of titrations. The fluorescence intensity was measured (λex = 554 nm for RhB) before the first addition and after every addition until a plateau was reached. By fitting the fluorescence intensity (λem = 575 nm for RhB) according to a 1:1 host-guest binding stoichiometry, the association constant was obtained. SC5A (LCG) and SBE-β-CD (NR) used the same method.
The complexation of SAC5A with NMP-BE was measured by competitive fluorescence titrations. […] The fluorescence intensity was measured (λex = 554 nm for RhB) before the first addition and after every addition. The association constant was obtained by fitting fluorescence intensity (λem = 575 nm for RhB) according to a 1:1 competitive binding model. […]
2.8 Fluorescence titrations of SC5A and SBE-β-CD with NMP-BE
Supplementary Figure 14. Competitive fluorescence titration of LCG@SC5A (1.0/1.0 µM) with NMP-BE (up to 80 µM) in HEPES buffer (10 mM, pH = 7.4) at 25 ℃, λex =

[5] = set-up: method as in PMID 17268062; details: cited from earlier work

Compound: N=C(N)NC(=O)c1nc(Cl)c(N)nc1N [AMI]
- cellular uptake relative to Ctrl (flow cytometry) in presence of endocytosis inhibitor (PANC1 cells [1]): 144.29 and 129.79 and 106.33 and 103.16

Compound: CN(C)CCCN1c2ccccc2Sc2ccc(Cl)cc21 [CHP]
- cellular uptake relative to Ctrl (flow cytometry) in presence of endocytosis inhibitor (PANC1 cells [1]): 134.50 and 125.70 and 108.52 and 108.27

Compound: CN1C(=CC=CC=CC2=[N+](C)c3ccccc3C2(C)C)C(C)(C)c2ccccc21 [CY5-DM, 1,1’,3,3,3’,3’-hexamethylindodicarbocyanine]
- difference in fluorescence intensities normoxic versus hypoxic (PANC1 cells [2]): no significant difference
- FL intensity of the tumor in vivo (PANC1 tumor-bearing mice; 1h post iv injection): 1.80E+09 and 1.62E+09
- FL intensity of the tumor in vivo (PANC1 tumor-bearing mice; 3h post iv injection): 1.74E+09 and 1.60E+09
- FL intensity of the tumor in vivo (PANC1 tumor-bearing mice; 6h post iv injection): 1.41E+09 and 1.34E+09 and 1.52E+09
- FL intensity of the tumor in vivo (PANC1 tumor-bearing mice; 12h post iv injection): 1.33E+09 and 1.26E+09
- FL intensity of the tumor in vivo (PANC1 tumor-bearing mice; 24h post iv injection): 8.57E+08 and 6.21E+08 and 9.14E+08

Compound: O=c1c(-c2ccc(O)cc2)coc2cc(O)cc(O)c12 [GEN]
- cellular uptake relative to Ctrl (flow cytometry) in presence of endocytosis inhibitor (PANC1 cells [1]): 88.04 and 87.28 and 70.24 and 68.53

Compound: O=S(=O)(O)c1cc2c(O)c(c1)Cc1cc(S(=O)(=O)O)cc(c1O)Cc1cc(S(=O)(=O)O)cc(c1O)Cc1cc(S(=O)(=O)O)cc(c1O)Cc1cc(S(=O)(=O)O)cc(c1O)C2 [SC5A, sulfonated calix[5]arene]
- 1:1 binding affinity between SC5A and LCG [3]: 1.48 106 M−1
- bonding ability to NMP-BE [4]: almost no bonding ability

Compound: C=C1/C=C\C(=O)N(C)CC(=O)NC(C(O)C(N)=O)C(=O)OC(C(C)CCCCCCCCCCCC(C)C)C(C)C(=O)N1 (stereo not shown) [rakicidin A]
- hypoxia-selective cytotoxicity [5]: moderate hypoxia-selective cytotoxicity

Compound: M-β-CD
- cellular uptake relative to Ctrl (flow cytometry) in presence of endocytosis inhibitor (PANC1 cells [1]): 121.64 and 117.67 and 92.45 and 90.16
